Here are results for 8 compounds from PubChem BioAssay (NCI).

Among the test systems are HCT-15 colon; OVCAR-4 ovarian; NCI-H522 lung; BT-549 breast; TK-10 renal; SR leukemia; HCT-116 colon; SW-620 colon; SK-OV-3 ovarian; SK-MEL-2 melanoma.
Holding throughout (assay): NCI tumour cell line growth inhibition, 48 h

SMILES strings stand for the structures.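 Exposure lasted 48 hours, with cells grown in 96-well plates and compounds tested at five concentrations. Here, GI50 denotes the concentration required for 50% inhibition of growth. The concentration for full growth arrest is given as TGI.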

Consider `CCCCCCCCCC(CCCC(O)CC(=O)O)OC1OC(COC2OC(C)C(O)C(O)C2O)C(O)C(O)C1OC1OC(CO)C(O)C(O)C1OC1OC(C)C(O)C(O)C1O` (configuration not stated), for which the GI50 with HCT-15 colon, in the assay with OVCAR-4 ovarian, with NCI-H522 lung, in the assay with BT-549 breast, in the assay on TK-10 renal and in the assay on SR leukemia was over 40 µM in each case. In addition, the GI50 with HCT-116 colon, in the assay with SW-620 colon and in the assay with SK-OV-3 ovarian was over 40 µM each time. Also, the TGI in the assay with HCT-15 colon, in the assay with OVCAR-4 ovarian, in the assay with NCI-H522 lung, in the assay on BT-549 breast, with TK-10 renal and in the assay on SR leukemia was over 40 µM throughout. For the same compound, the TGI with HCT-116 colon, in the assay with SW-620 colon and in the assay on SK-OV-3 ovarian was over 40 µM each time.
In the case of `COC(=O)c1ccc(C2SCC(=O)N2NC(=O)C(O)c2ccccc2)cc1` (configuration not stated), the GI50 in the assay on HCT-15 colon, in the assay on OVCAR-4 ovarian, with NCI-H522 lung, with BT-549 breast, with TK-10 renal and with SK-MEL-2 melanoma was over 100 µM each time. In addition, the GI50 in the assay on HCT-116 colon, with SW-620 colon and in the assay on SK-OV-3 ovarian was over 100 µM throughout. Also, the TGI with HCT-15 colon, with OVCAR-4 ovarian, in the assay on NCI-H522 lung, in the assay on BT-549 breast, in the assay with TK-10 renal and with SK-MEL-2 melanoma was over 100 µM throughout. Moreover, the TGI in the assay on HCT-116 colon, in the assay on SW-620 colon and in the assay on SK-OV-3 ovarian was over 100 µM in each case.
On to `O=C1c2cccnc2C(=O)c2c1c(C(=O)OCCN1CCOCC1)c1ccccn21`, for which the GI50 with OVCAR-4 ovarian was 1.07 µM; with NCI-H522 lung, under 0.0109 µM; in the assay on BT-549 breast it was 0.05 µM; in the assay on TK-10 renal, 0.163 µM; in the assay on SK-MEL-2 melanoma it was 0.0585 µM; with SR leukemia, under 0.01 µM. Also, the GI50 in the assay on HCT-116 colon is 0.0417 µM; in the assay with SW-620 colon, under 0.01 µM; in the assay on SK-OV-3 ovarian, under 0.01 µM. The TGI in the assay with OVCAR-4 ovarian worked out at 5.29 µM; in the assay with NCI-H522 lung, 0.0449 µM; in the assay with BT-549 breast, 2.62 µM; with TK-10 renal, 2.72 µM; in the assay on SK-MEL-2 melanoma, 1.61 µM; in the assay with SR leukemia it was 1.83 µM. The TGI was 1.49 µM with HCT-116 colon, 3.23 µM in the assay with SW-620 colon and 0.0371 µM with SK-OV-3 ovarian.
In the case of `O=CC1(C2(C=O)c3ccccc3-c3ccccc32)c2ccccc2-c2ccccc21`, the GI50 was 1.68 µM in the assay with HCT-15 colon; 2.02 µM in the assay with OVCAR-4 ovarian; 2.01 µM in the assay with NCI-H522 lung; 2.01 µM with BT-549 breast; 2.63 µM with TK-10 renal; 2 µM with SK-MEL-2 melanoma. Also, the GI50 with SR leukemia is 1.65 µM; in the assay with SW-620 colon it was 1.8 µM. Besides, the TGI in the assay with HCT-15 colon is 3.66 µM; with OVCAR-4 ovarian, 5.26 µM; in the assay on NCI-H522 lung, 4.38 µM; in the assay on BT-549 breast, 4.84 µM; in the assay with TK-10 renal it was 5.51 µM; with SK-MEL-2 melanoma it was 4.82 µM. Also, the TGI in the assay with SR leukemia was 3.43 µM; in the assay on SW-620 colon, 3.53 µM.
As to `CSc1nc2c(c(=O)[nH]1)C(c1ccc(Cl)cc1)C1=C(N2)/C(=C/c2ccc(Cl)cc2)CNC1` (configuration not stated), the GI50 was 2.04 µM in the assay with HCT-15 colon; 4.76 µM in the assay on OVCAR-4 ovarian; 1.85 µM in the assay on NCI-H522 lung; 1.8 µM with BT-549 breast; 2.76 µM with SK-MEL-2 melanoma; 1.9 µM in the assay on SR leukemia. In addition, the figures for the GI50 in the assay on HCT-116 colon, in the assay on SW-620 colon and with SK-OV-3 ovarian were 1.72 µM, 2.86 µM and 2.66 µM, respectively. Moreover, the TGI was found to be 5.54 µM in the assay with HCT-15 colon; 19.2 µM with OVCAR-4 ovarian; 4.81 µM with NCI-H522 lung; 3.68 µM with BT-549 breast; 9.53 µM with SK-MEL-2 melanoma; 5.87 µM in the assay with SR leukemia. Besides, the TGI in the assay with HCT-116 colon amounted to 3.55 µM; with SW-620 colon it was 10 µM; in the assay with SK-OV-3 ovarian, 6.33 µM.
`COc1cc2c3c(n(CCCCl)c(=O)c2cc1OC)-c1ccc(C#N)cc1C3=O`: the GI50 is 3.31 µM in the assay on HCT-15 colon; 88.7 µM in the assay with OVCAR-4 ovarian; 6.63 µM in the assay with NCI-H522 lung; 5.5 µM in the assay on BT-549 breast; 13.5 µM in the assay on TK-10 renal; 4.93 µM in the assay with SK-MEL-2 melanoma. In addition, the GI50 with HCT-116 colon was 15.2 µM; in the assay on SW-620 colon, 0.996 µM; in the assay with SK-OV-3 ovarian, 15.2 µM. Also, the TGI in the assay on HCT-15 colon is 20.5 µM; in the assay with OVCAR-4 ovarian it was over 100 µM; in the assay with NCI-H522 lung, 59.2 µM; with BT-549 breast it was 23.6 µM; in the assay on TK-10 renal, 29.3 µM; in the assay on SK-MEL-2 melanoma it was 24.5 µM. The TGI is over 100 µM with HCT-116 colon, over 100 µM in the assay with SW-620 colon and 44 µM with SK-OV-3 ovarian.
As to `CC/C=C\C/C=C\C[C@H]1C/C=C2/C(=O)C=C[C@H]2C/C=C\CCC(=O)O1`, the GI50 with HCT-15 colon is 2.23 µM; in the assay with OVCAR-4 ovarian it was 5.22 µM; in the assay on NCI-H522 lung, 1.83 µM; in the assay on BT-549 breast, 3.68 µM; with TK-10 renal it was 4.72 µM; with SK-MEL-2 melanoma it was 3.45 µM. Further, the GI50 in the assay on HCT-116 colon is 3.63 µM; in the assay with SW-620 colon, 2.11 µM; in the assay with SK-OV-3 ovarian it was 10 µM. Also, the TGI in the assay with HCT-15 colon was 6 µM; with OVCAR-4 ovarian it was over 14.3 µM; in the assay with NCI-H522 lung, 5.32 µM; with BT-549 breast it was 10.1 µM; in the assay on TK-10 renal, 12.9 µM; in the assay with SK-MEL-2 melanoma, 9.94 µM. The values for the TGI in the assay on HCT-116 colon, in the assay on SW-620 colon and in the assay with SK-OV-3 ovarian were over 14.3 µM, 5.52 µM and over 14.3 µM, respectively.
Consider `COc1cc2c3c(c4c5ccccc5[nH]c4c2c(OC)c1OC)C(=O)N(CCN1CCCCC1)C3=O`, for which the GI50 is 0.498 µM with HCT-15 colon; 1.26 µM in the assay on OVCAR-4 ovarian; 0.794 µM in the assay with NCI-H522 lung; 4.6 µM with BT-549 breast; 1.3 µM in the assay with TK-10 renal; 3.17 µM in the assay on SK-MEL-2 melanoma. Further, the GI50 is 0.351 µM with HCT-116 colon, 0.474 µM with SW-620 colon and 1.18 µM with SK-OV-3 ovarian. In addition, the TGI in the assay on HCT-15 colon amounted to 2.07 µM; in the assay with OVCAR-4 ovarian, 3.14 µM; in the assay on NCI-H522 lung it was 2.76 µM; in the assay with BT-549 breast, 13.4 µM; with TK-10 renal, 2.72 µM; in the assay with SK-MEL-2 melanoma it was 11.2 µM. Moreover, the TGI in the assay with HCT-116 colon amounted to 1.46 µM; in the assay on SW-620 colon, 2.56 µM; in the assay with SK-OV-3 ovarian, 2.53 µM.
